For assay [1], the system named is Mino cells. In words: Antiproliferative effect, MTS cell viability assay, Mino cells. The format is cell-based. Conditions: Homo sapiens, MINO, Mino mantle cell lymphoma cells; read-out: IC50 (anti-proliferation) Mino cells. Put shortly:
(§1)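 MTS read-out, A490 of formazan from metabolically active cells; compound 0–10 μM (0, 0.001, 0.01, 0.1, 1, 10 μM), 72 h exposure.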

Assay [2] has as its system JeKo-1 cells. As to the kind of experiment: Antiproliferative effect, MTS cell viability assay, JeKo-1 cells. The class given is cell-based. The conditions noted are these: Homo sapiens; JeKo-1 mantle cell lymphoma cells; read-out: IC50 (anti-proliferation) JeKO-1 cells. Put shortly: as §1
For orientation: Tetrazolium assays rely on reduction of a dye to a coloured formazan, in cell work by metabolically active cells.

In assay [3] the target is BTK (Homo sapiens, UniProt Q06187). As to the kind of experiment: Degradation of BTK protein in Namalwa cells (Western blot; DC50, Dmax). Conditions: for DC50: BTK degradation, cell line not given. Background: Immunoblotting shows a protein as a band on a membrane.
BTK, sequence (Q06187 whole entry): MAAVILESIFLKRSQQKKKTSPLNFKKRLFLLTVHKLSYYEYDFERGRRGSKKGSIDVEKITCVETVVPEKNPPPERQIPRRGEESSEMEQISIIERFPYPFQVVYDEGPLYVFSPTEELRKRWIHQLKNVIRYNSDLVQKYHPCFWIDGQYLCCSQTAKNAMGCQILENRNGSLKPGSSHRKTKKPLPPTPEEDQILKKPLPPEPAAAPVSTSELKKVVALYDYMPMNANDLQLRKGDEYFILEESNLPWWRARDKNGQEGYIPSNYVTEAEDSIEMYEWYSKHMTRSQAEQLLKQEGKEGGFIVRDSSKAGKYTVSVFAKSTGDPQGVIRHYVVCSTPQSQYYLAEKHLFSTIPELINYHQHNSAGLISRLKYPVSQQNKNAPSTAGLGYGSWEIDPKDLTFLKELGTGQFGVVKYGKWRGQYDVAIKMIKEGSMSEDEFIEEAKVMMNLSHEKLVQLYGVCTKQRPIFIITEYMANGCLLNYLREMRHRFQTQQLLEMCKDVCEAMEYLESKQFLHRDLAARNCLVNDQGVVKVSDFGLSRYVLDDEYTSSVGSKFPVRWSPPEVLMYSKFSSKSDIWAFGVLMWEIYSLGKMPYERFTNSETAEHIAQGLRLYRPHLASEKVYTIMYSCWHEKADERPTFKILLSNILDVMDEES

This note sets out measurements from patent US12139492B2 (Endotarget Inc., priority 2021, dated 2024).

As a reminder, the Dmax is the largest share of the target that was removed. A high value points to deep degradation. The DC50 is the midpoint of the concentration-degradation curve.

With `Nc1ncnc2c1c(-c1ccc(Oc3ccccc3)cc1)nn2C1CCN(C2CCN(C(=O)N3CCN(c4ccc5c(c4)C(=O)N(C4CCC(=O)NC4=O)C5=O)CC3)CC2)CC1` (stereo not drawn) [Compound 229, 5-(4-(4-(4-amino-3-(4-phenoxyphenyl)-1H-pyrazolo[3,4-d]pyrimidin-1-yl)-[1,4′-bipiperidine]-1′-carbonyl)piperazin-1-yl)-2-(2,6-dioxopiperidin-3-yl)isoindoline-1,3-dione], the IC50 in assay [1] is above 10 µM. Besides, the IC50 in assay [2] is 1 to 10 µM. In addition, in assay [3], the Dmax was above 50% and the DC50 is above 0.05 µM.

`Nc1ncnc2c1c(-c1ccc(Oc3ccccc3)cc1)nn2C1CCN(C2CCN(C(=O)N3CCN(c4ccc5c(c4)CN(C4CCC(=O)NC4=O)C5=O)CC3)CC2)CC1` (stereo not drawn) [Compound 230, 3-(5-(4-(4-(4-amino-3-(4-phenoxyphenyl)-1H-pyrazolo[3,4-d]pyrimidin-1-yl)-[1,4′-bipiperidine]-1′-carbonyl)piperazin-1-yl)-1-oxoisoindolin-2-yl)piperidine-2,6-dione]: the IC50 in assay [1] is 1 to 10 µM. The IC50 in assay [2] was 1 to 10 µM. In addition, in assay [3], the Dmax is above 50% and the DC50 is above 0.05 µM.

Regarding `Nc1ncnc2c1c(-c1ccc(Oc3ccccc3)cc1)nn2C1CCN(C2CCN(C(=O)N3CCC(N4CCN(c5ccc6c(c5)C(=O)N(C5CCC(=O)NC5=O)C6=O)CC4)CC3)CC2)CC1` (stereo not drawn) [Compound 231, 5-(4-(1-(4-(4-amino-3-(4-phenoxyphenyl)-1H-pyrazolo[3,4-d]pyrimidin-1-yl)-[1,4′-bipiperidine]-1′-carbonyl)piperidin-4-yl)piperazin-1-yl)-2-(2,6-dioxopiperidin-3-yl)isoindoline-1,3-dione], the IC50 in assay [1] and in assay [2] was 1 to 10 µM each time. Moreover, in assay [3], the Dmax is above 90%. Also, the DC50 in assay [3] was 0.01 to 0.05 µM.

In the case of `Nc1ncnc2c1c(-c1ccc(Oc3ccccc3)cc1)nn2C1CCN(C2CCN(C(=O)N3CCC(N4CCN(c5ccc6c(c5)CN(C5CCC(=O)NC5=O)C6=O)CC4)CC3)CC2)CC1` (stereo not drawn) [Compound 232, 3-(5-(4-(1-(4-(4-amino-3-(4-phenoxyphenyl)-1H-pyrazolo[3,4-d]pyrimidin-1-yl)-[1,4′-bipiperidine]-1′-carbonyl)piperidin-4-yl)piperazin-1-yl)-1-oxoisoindolin-2-yl)piperidine-2,6-dione], the IC50 in assay [1] lay within 1 to 10 µM. Besides, the IC50 in assay [2] was 1 to 10 µM. Besides, in assay [3], the Dmax was above 90% and the DC50 is below 0.01 µM.

On to `Nc1ncnc2c1c(-c1ccc(Oc3ccccc3)cc1)nn2C1CCN(C2CCN(C(=O)N3CCN(C4CCN(c5ccc6c(c5)C(=O)N(C5CCC(=O)NC5=O)C6=O)CC4)CC3)CC2)CC1` (stereo not drawn) [Compound 233, 5-(4-(4-(4-(4-amino-3-(4-phenoxyphenyl)-1H-pyrazolo[3,4-d]pyrimidin-1-yl)-[1,4′-bipiperidine]-1′-carbonyl)piperazin-1-yl)piperidin-1-yl)-2-(2,6-dioxopiperidin-3-yl)isoindoline-1,3-dione], for which the IC50 in assay [1] and in assay [2] was 1 to 10 µM each time. In assay [3], this molecule displayed a Dmax above 75%. In addition, the DC50 in assay [3] was above 0.05 µM.

Regarding `Nc1ncnc2c1c(-c1ccc(Oc3ccccc3)cc1)nn2C1CCN(C2CCN(C(=O)N3CCN(C4CCN(c5ccc6c(c5)CN(C5CCC(=O)NC5=O)C6=O)CC4)CC3)CC2)CC1` (stereo not drawn) [Compound 234, 3-(5-(4-(4-(4-(4-amino-3-(4-phenoxyphenyl)-1H-pyrazolo[3,4-d]pyrimidin-1-yl)-[1,4′-bipiperidine]-1′-carbonyl)piperazin-1-yl)piperidin-1-yl)-1-oxoisoindolin-2-yl)piperidine-2,6-dione], in assay [1], the IC50 lay within 1 to 10 µM. In assay [2], the IC50 fell in the range of 1 to 10 µM. In assay [3], this molecule yielded a Dmax above 75% and a DC50 of 0.01 to 0.05 µM.

As for `Nc1ncnc2c1c(-c1ccc(Oc3ccccc3)cc1)nn2C1CCN(C2CCN(C(=O)N3CCC(N4CCC(c5ccc6c(c5)C(=O)N(C5CCC(=O)NC5=O)C6=O)CC4)CC3)CC2)CC1` (stereo not drawn) [Compound 235, 5-(1′-(4-(4-amino-3-(4-phenoxyphenyl)-1H-pyrazolo[3,4-d]pyrimidin-1-yl)-[1,4′-bipiperidine]-1′-carbonyl)-[1,4′-bipiperidin]-4-yl)-2-(2,6-dioxopiperidin-3-yl)isoindoline-1,3-dione], the IC50 in assay [1] was in the range of 1 to 10 µM. For the same molecule, the IC50 in assay [2] is 1 to 10 µM. Further, in assay [3], the Dmax is above 90% and the DC50 lay in the range of 0.01 to 0.05 µM.

Regarding `Nc1ncnc2c1c(-c1ccc(Oc3ccccc3)cc1)nn2C1CCN(C2CCN(C(=O)N3CCC(N4CCC(c5ccc6c(c5)CN(C5CCC(=O)NC5=O)C6=O)CC4)CC3)CC2)CC1` (stereo not drawn) [Compound 236, 3-(5-(1′-(4-(4-amino-3-(4-phenoxyphenyl)-1H-pyrazolo[3,4-d]pyrimidin-1-yl)-[1,4′-bipiperidine]-1′-carbonyl)-[1,4′-bipiperidin]-4-yl)-1-oxoisoindolin-2-yl)piperidine-2,6-dione], the IC50 in assay [1] was in the range of 1 to 10 µM. For the same molecule, in assay [2], the IC50 is 1 to 10 µM. In assay [3], this molecule came in with a Dmax above 90% and a DC50 of 0.01 to 0.05 µM.

For `Nc1ncnc2c1c(-c1ccc(Oc3ccccc3)cc1)nn2C1CCN(C2CCN(C(=O)N3CCC(CC4CCN(c5ccc6c(c5)C(=O)N(C5CCC(=O)NC5=O)C6=O)CC4)CC3)CC2)CC1` (stereo not drawn) [Compound 237, 5-(4-((1-(4-(4-amino-3-(4-phenoxyphenyl)-1H-pyrazolo[3,4-d]pyrimidin-1-yl)-[1,4′-bipiperidine]-1′-carbonyl)piperidin-4-yl)methyl)piperidin-1-yl)-2-(2,6-dioxopiperidin-3-yl)isoindoline-1,3-dione], the IC50 in assay [1] is below 1 µM; in assay [2], 1 to 10 µM. The molecule further registered a Dmax in assay [3] above 90%. The molecule also showed a DC50 in assay [3] of 0.01 to 0.05 µM.

Take `Nc1ncnc2c1c(-c1ccc(Oc3ccccc3)cc1)nn2C1CCN(C2CCN(C(=O)N3CCC(CC4CCN(c5ccc6c(c5)CN(C5CCC(=O)NC5=O)C6=O)CC4)CC3)CC2)CC1` (stereo not drawn) [Compound 238, 3-(5-(4-((1-(4-(4-amino-3-(4-phenoxyphenyl)-1H-pyrazolo[3,4-d]pyrimidin-1-yl)-[1,4′-bipiperidine]-1′-carbonyl)piperidin-4-yl)methyl)piperidin-1-yl)-1-oxoisoindolin-2-yl)piperidine-2,6-dione]: in assay [1], the IC50 is below 1 µM. The IC50 in assay [2] was 1 to 10 µM. In assay [3], this molecule returned a Dmax above 90% and a DC50 below 0.01 µM.

Take `Nc1ncnc2c1c(-c1ccc(Oc3ccccc3)cc1)nn2C1CCN(C2CCN(C(=O)N3CCC(CN4CCN(c5ccc6c(c5)C(=O)N(C5CCC(=O)NC5=O)C6=O)CC4)CC3)CC2)CC1` (stereo not drawn) [Compound 239, 5-(4-((1-(4-(4-amino-3-(4-phenoxyphenyl)-1H-pyrazolo[3,4-d]pyrimidin-1-yl)-[1,4′-bipiperidine]-1′-carbonyl)piperidin-4-yl)methyl)piperazin-1-yl)-2-(2,6-dioxopiperidin-3-yl)isoindoline-1,3-dione]: the IC50 in assay [1] lay in the range of 1 to 10 µM. Also, the IC50 in assay [2] was below 1 µM. In assay [3], this molecule yielded a Dmax above 90% and a DC50 of 0.01 to 0.05 µM.

Turning to `Nc1ncnc2c1c(-c1ccc(Oc3ccccc3)cc1)nn2C1CCN(C2CCN(C(=O)N3CCC(CN4CCN(c5ccc6c(c5)CN(C5CCC(=O)NC5=O)C6=O)CC4)CC3)CC2)CC1` (stereo not drawn) [Compound 240, 3-(5-(4-((1-(4-(4-amino-3-(4-phenoxyphenyl)-1H-pyrazolo[3,4-d]pyrimidin-1-yl)-[1,4′-bipiperidine]-1′-carbonyl)piperidin-4-yl)methyl)piperazin-1-yl)-1-oxoisoindolin-2-yl)piperidine-2,6-dione], the IC50 in assay [1] lay in the range of 1 to 10 µM. Moreover, the IC50 in assay [2] is below 1 µM. In assay [3], the Dmax was above 90% and the DC50 was below 0.01 µM.

Regarding `Nc1ncnc2c1c(-c1ccc(Oc3ccccc3)cc1)nn2C1CCN(C2CCN(C(=O)N3CCN(CC4CCN(c5ccc6c(c5)C(=O)N(C5CCC(=O)NC5=O)C6=O)CC4)CC3)CC2)CC1` (stereo not drawn) [Compound 241, 5-(4-((4-(4-(4-amino-3-(4-phenoxyphenyl)-1H-pyrazolo[3,4-d]pyrimidin-1-yl)-[1,4′-bipiperidine]-1′-carbonyl)piperazin-1-yl)methyl)piperidin-1-yl)-2-(2,6-dioxopiperidin-3-yl)isoindoline-1,3-dione], the IC50 in assay [1] fell in the range of 1 to 10 µM. The IC50 in assay [2] lay in the range of 1 to 10 µM. In assay [3], this molecule showed a Dmax above 90% and a 50% degradation concentration (DC50) of 0.01 to 0.05 µM.

On to `Nc1ncnc2c1c(-c1ccc(Oc3ccccc3)cc1)nn2C1CCN(C2CCN(C(=O)N3CCN(CC4CCN(c5ccc6c(c5)CN(C5CCC(=O)NC5=O)C6=O)CC4)CC3)CC2)CC1` (stereo not drawn) [Compound 242, 3-(5-(4-((4-(4-(4-amino-3-(4-phenoxyphenyl)-1H-pyrazolo[3,4-d]pyrimidin-1-yl)-[1,4′-bipiperidine]-1′-carbonyl)piperazin-1-yl)methyl)piperidin-1-yl)-1-oxoisoindolin-2-yl)piperidine-2,6-dione], for which the IC50 is below 1 µM in assay [1] and 1 to 10 µM in assay [2]. In assay [3], this molecule showed a Dmax above 90%. In addition, the DC50 in assay [3] was below 0.01 µM.

On to `Nc1ncnc2c1c(-c1ccc(Oc3ccccc3)cc1)nn2C1CCN(C2CCN(C(=O)N3CCC(CN4CCC(c5ccc6c(c5)C(=O)N(C5CCC(=O)NC5=O)C6=O)CC4)CC3)CC2)CC1` (stereo not drawn) [Compound 243, 5-(1-((1-(4-(4-amino-3-(4-phenoxyphenyl)-1H-pyrazolo[3,4-d]pyrimidin-1-yl)-[1,4′-bipiperidine]-1′-carbonyl)piperidin-4-yl)methyl)piperidin-4-yl)-2-(2,6-dioxopiperidin-3-yl)isoindoline-1,3-dione], for which the IC50 in assay [1] and in assay [2] was 1 to 10 µM throughout. The Dmax in assay [3] was above 90%. The DC50 in assay [3] was below 0.01 µM.
